Test results from patent publication US12527778B2, “Enantiomers of a series of antiviral compounds” (Innovative Molecules GmbH, priority 2017, dated 2026).

Test: aqueous solubility (PBS, pH 7.4), shake flask
Assay type: physicochemical
Description: The aqueous solubility (PBS, pH 7.4) was determined at Eurofins, Cerep, Panlabs according to C. A. Lipinski et al. Adv. Drug Del. Rev. 1997:46, 3.
Measurement of the aqueous solubility was performed according to Lipinski, C. A. et al. Adv. Drug Del. Rev. 1997:46, 3. The relevant information from the literature is described below.
In addition, chromatographic purity (%) was defined as the peak area of the principal peak relative to the total integrated peak area in the HPLC chromatogram of the calibration standard.

Cc1nc(N(C)C(=O)Cc2ccc(-c3cc(F)ccc3F)cc2)sc1S(C)(=N)=O (racemic) [Example 7, 2-(2′,5′-Difluoro-[1,1′-biphenyl]-4-yl)-N-methyl-N-(4-methyl-5-(S-methylsulfonimidoyl)thiazol-2-yl)acetamide]
solubility in comparison to Example 87 (WO2001/047904): significantly increased solubility (at least one order of magnitude)
